# Peptide text beside a SMILES is read from it. * marks the point of attachment. For = O=C*
# Experiments:
# [1] = system: Fpr3-expressing VSNs; assay: Egr1 induction in Fpr3-positive VSNs after oronasal peptide application, RNAscope (Fig. 7c, e); format: in vivo, mouse; details: 100 µM, male B6 mice
# Procedure: For each mouse, serial coronal VNO cryosections (12 µm) were collected as two alternate sets, each representing every second section of the whole VNO. One set was subjected to RNAscope in situ hybridisation using the RNAscope Fluorescent Multiplex Detection Kit (ACD Bio-Techne) and specific probes for Fpr3 and LacZ according to the manufacturer’s protocol. Sections were incubated in 1 x citrate buffer pH 6.0 (DAKO, Germany) for 5 min at 98 °C in a coplin jar, rinsed twice in distilled water, dehydrated in 100% ethanol, and air dried prior to protease III treatment for 30 min at 40 °C. After rinsing in distilled water, sections were simultaneously hybridised with RNA scope target probes generated for mouse Fpr3 and E.coli LacZ (ACD Bio-Techne). The Fpr3 probe was designed as channel 1 probe containing 7 ZZ structures targeting base pairs 456–1143 of NM_008042.2, specific to mouse Fpr3. The LacZ probe, designed as channel 3 probe contains 30 ZZ structures targeting the region 279–1790 bp of KC847299.1 (cat# 313451-C3). […] Following hybridisation (2 h, 40 °C), sections were rinsed twice for 2 min in wash buffer (ACD Bio-Techne), and sequentially treated with amplification solutions at 40 °C (30 min Amp1-FL, 15 min Amp2-FL, 30 min Amp3-FL) and fluorescence reagent (15 min, 40 °C Amp4-altC), with intermitting washing steps at room temperature between reagents. Cell nuclei were stained with DAPI solution (ACD Bio-Techne) for 1 min, and tissue sections were mounted with DAKO fluorescence medium and stored for 12 h at 4 °C. Fluorescence images of the RNAscope results were acquired from each section using a Zeiss LSM 880 confocal microscope containing a 32-channel GaAsP-PMT and 2-channel PMT QUASAR detector.
# We stimulated adult male B6 mice with f-MKKFRW (100 µM) and performed double-labelling RNAscope in situ hybridisation for Fpr3 and the immediate early gene Egr1 on VNO tissue sections. […] VNO tissue was prepared for RNAscope fluorescence in situ hybridisation as described above using Fpr3 and Egr1 probes simultaneously. […]
# [2] = target: T1, mouse Fpr3 (Fpr-rs1) (Mus musculus, UniProt O08790); assay: Concentration-response Ca2+ imaging of Fpr3-transfected HEK293T cells (Fig. 2f, h, j); format: cell-based; details: Ca2+ responses of Fpr3-transfected HEK293T; Fluo-4/AM, FLIPR; buffer C1 pH 7.2; Fig. 2f, h, j
# T1 construct: expressed in transfected cells; host or cells: HEK293T (DSMZ # ACC-635), transient transfection with jetPEI
# T1 sequence (O08790 1-351): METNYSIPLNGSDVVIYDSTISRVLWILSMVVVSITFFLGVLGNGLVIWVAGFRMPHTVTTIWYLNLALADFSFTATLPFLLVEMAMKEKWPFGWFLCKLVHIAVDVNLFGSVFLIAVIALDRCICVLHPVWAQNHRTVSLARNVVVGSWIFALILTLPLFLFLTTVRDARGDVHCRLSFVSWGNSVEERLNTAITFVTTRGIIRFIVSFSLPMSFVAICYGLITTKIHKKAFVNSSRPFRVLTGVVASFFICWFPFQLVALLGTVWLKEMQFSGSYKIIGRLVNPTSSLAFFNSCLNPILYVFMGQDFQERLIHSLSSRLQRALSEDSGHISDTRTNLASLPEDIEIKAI
# Procedure: An Fpr3 gene subcloned from genomic DNA of C57BL/6J mice into pcDNA3.1 (Invitrogen) was used in heterologous experiments[21],[80]. HEK293T (DSMZ # ACC-635) cells were seeded at 20–30% confluence on poly-D-lysine-coated (10 µg/ml in PBS) black 96-well µCLEAR-Plates (Greiner Bio-One). Cells were transfected 24 h later using jetPEI™ (Polyplus-transfection SA) according to the manufacturer’s protocol for 96-well transfections. For Ca^2+ imaging experiments, 0.125 µg of DNA plasmid encoding Fpr3 were cotransfected with equal amounts of a plasmid encoding Gα16, a promiscuous G protein α-subunit. Ca^2+ signals to agonist stimulation were recorded 48 h post transfection using the Ca^2+ indicator dye Fluo-4/AM (Molecular Probes) and a fluorescence imaging plate reader (FLIPR) system (Molecular Devices).
# We used custom-made peptides with a length of 6–21 amino acids to screen for agonists. Sequences of fMet peptides were designed according to motifs present at the N-termini of 15,125 specific bacterial proteins as annotated in UniProt. Peptides were chemically synthesised, purified, and verified by mass spectroscopy (MALDI-TOF) by commercial suppliers. […] Source, sequence and purity of each peptide are listed in Supplementary Data 1. Lyophilised peptides were routinely dissolved in the Ca^2+ imaging assay buffer C1 (130 mM NaCl, 10 mM HEPES, 5 mM KCl, 2 mM CaCl2, 5 mM glucose, pH 7.2) as 0.2–1 mM stock solutions and kept in small aliquots at −20 °C until use.
structure (smiles),measurement,setting,value
CSCC[C@H](NC=O)C(=O)N[C@@H](CCCCN)C(=O)N[C@@H](CCCCN)C(=O)N[C@@H](Cc1ccccc1)C(=O)N[C@@H](CCCNC(=N)N)C(=O)N[C@@H](Cc1c[nH]c2ccccc12)C(=O)O [f-MKKFRW] (For-MKKFRW-OH),Egr1-positive / Fpr3-positive VSNs,[1]; oronasal,145/317
same,fraction of Fpr3-positive VSNs co-localised with Egr1,"[1]; oronasal, mean ± s.d.",0.46 ± 0.11
same,Egr1 induction in Fpr3-positive VSNs,"[1]; oronasal or voluntary uptake, both types of experiments",~ 50%
same,EC50,[2],7.7 µM
